Data: patent publication US20170050957A1, “4-AMINO-6-(HETEROCYCLIC)PICOLINATES AND 6-AMINO-2-(HETEROCYCLIC)PYRIMIDINE-4-CARBOXYLATES AND THEIR USE AS HERBICIDES” (Dow AgroSciences LLC, priority 2013, published 2017)
Like-named read-outs stand apart in the source and are kept apart here.

Assays:
[1] = tested on: Key Broadleaf Weed and Crop Species; assay: Post-emergent Test II herbicidal activity (Table 15); type: in vivo; conditions: post-emergence, 336 h, 14 d; for pest or weed control at 35 g/ha: 35 g ai/ha; for pest or weed control at 70 g/ha: 70 g ai/ha; for pest or weed control at 140 g/ha: 140 g ai/ha
In short: (§1)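 Plants at first-second true leaf stage, grown 7-21 d in greenhouse (~15 h photoperiod, 23-29 °C day), were track-sprayed at 187 L/ha with compound in acetone/DMSO/water/isopropanol/crop oil/Triton X-155 at a high rate plus 1/2× to 1/16× dilutions. Injury scored visually after 14 d versus untreated plants, 0 (none) to 100% (complete kill).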

[2] = tested on: Key Grass and Sedge Weeds as well as Grass Crops; assay: Post-emergent Test II herbicidal activity (Table 16); type: in vivo; conditions: post-emergence, 336 h, 14 d; for pest or weed control at 35 g/ha: 35 g ai/ha; for pest or weed control at 70 g/ha: 70 g ai/ha; for pest or weed control at 140 g/ha: 140 g ai/ha
In short: as §1

[3] = Abutilon theophrasti, velvetleaf (Abutilon theophrasti), read-out: Visual Growth Reduction (%) 14 Days After Application, ABUTH
[4] = Amaranthus retroflexus, redroot pigweed (Amaranthus retroflexus), read-out: Visual Growth Reduction (%) 14 Days After Application, AMARE
[5] = Brassica napus, oilseed rape, canola (Brassica napus), read-out: Visual Growth Reduction (%) 14 Days After Application, BRSNN
[6] = Chenopodium album, lambsquarters (Chenopodium album), read-out: Visual Growth Reduction (%) 14 Days After Application, CHEAL
[7] = Euphorbia heterophylla, wild poinsettia (Euphorbia heterophylla), read-out: Visual Growth Reduction (%) 14 Days After Application, EPHHL
[8] = Helianthus annuus, sunflower (Helianthus annuus), read-out: Visual Growth Reduction (%) 14 Days After Application, HELAN
[9] = Cyperus esculentus, yellow nutsedge (Cyperus esculentus), read-out: Visual Growth Reduction (%) 14 Days After Application, CYPES
[10] = Echinochloa crus-galli, barnyardgrass (Echinochloa crus-galli), read-out: Visual Growth Reduction (%) 14 Days After Application, ECHCG
[11] = Oryza sativa, rice (Oryza sativa), read-out: Visual Growth Reduction (%) 14 Days After Application, ORYSA
[12] = Setaria faberi, giant foxtail (Setaria faberi), read-out: Visual Growth Reduction (%) 14 Days After Application, SETFA
[13] = Triticum aestivum, wheat, spring (Triticum aestivum), read-out: Visual Growth Reduction (%) 14 Days After Application, TRZAS
[14] = Zea mays, maize, corn (Zea mays), read-out: Visual Growth Reduction (%) 14 Days After Application, ZEAMX

SMILES	pest or weed control at 35 g/ha [1, 3]	pest or weed control at 70 g/ha [1, 3]	pest or weed control at 140 g/ha [1, 3]	pest or weed control at 35 g/ha [1, 4]	pest or weed control at 70 g/ha [1, 4]	pest or weed control at 140 g/ha [1, 4]	pest or weed control at 35 g/ha [1, 5]	pest or weed control at 70 g/ha [1, 5]	pest or weed control at 140 g/ha [1, 5]	pest or weed control at 35 g/ha [1, 6]	pest or weed control at 70 g/ha [1, 6]	pest or weed control at 140 g/ha [1, 6]	pest or weed control at 35 g/ha [1, 7]	pest or weed control at 70 g/ha [1, 7]	pest or weed control at 140 g/ha [1, 7]	pest or weed control at 35 g/ha [1, 8]	pest or weed control at 70 g/ha [1, 8]	pest or weed control at 140 g/ha [1, 8]	pest or weed control at 35 g/ha [2, 9]	pest or weed control at 70 g/ha [2, 9]	other results
COc1c(N)nc(-c2ccc3cc[nH]c3c2)nc1C(=O)O [Compound 1.33]	0 to 29%	0 to 29%	0 to 29%	60 to 74%	60 to 74%	75 to 84%	95 to 100%	95 to 100%	95 to 100%	0 to 29%	45 to 59%	60 to 74%	45 to 59%	60 to 74%	75 to 84%	60 to 74%	60 to 74%	75 to 84%	0 to 29%	0 to 29%	pest or weed control at 140 g/ha [2, 9]: 0 to 29%; pest or weed control at 35 g/ha [2, 10]: 0 to 29%; pest or weed control at 70 g/ha [2, 10]: 0 to 29%; pest or weed control at 140 g/ha [2, 10]: 0 to 29%; pest or weed control at 35 g/ha [2, 11]: 0 to 29%; pest or weed control at 70 g/ha [2, 11]: 0 to 29%; pest or weed control at 140 g/ha [2, 11]: 0 to 29%; pest or weed control at 35 g/ha [2, 12]: 0 to 29%; pest or weed control at 70 g/ha [2, 12]: 0 to 29%; pest or weed control at 140 g/ha [2, 12]: 0 to 29%; pest or weed control at 35 g/ha [2, 13]: 0 to 29%; pest or weed control at 70 g/ha [2, 13]: 0 to 29%; pest or weed control at 140 g/ha [2, 13]: 30 to 44%; melting point: 154 to 157 °C
COC(=O)c1nc(-c2ccc3cc[nH]c3c2F)nc(N)c1Cl [Compound 1.31]	45 to 59%	60 to 74%	60 to 74%	60 to 74%	95 to 100%	95 to 100%	85 to 94%	95 to 100%	95 to 100%	95 to 100%	95 to 100%	95 to 100%	95 to 100%	95 to 100%	95 to 100%	30 to 44%	45 to 59%	60 to 74%	0 to 29%	0 to 29%	pest or weed control at 140 g/ha [2, 9]: 0 to 29%; pest or weed control at 35 g/ha [2, 10]: 75 to 84%; pest or weed control at 70 g/ha [2, 10]: 75 to 84%; pest or weed control at 140 g/ha [2, 10]: 85 to 94%; pest or weed control at 35 g/ha [2, 11]: 0 to 29%; pest or weed control at 70 g/ha [2, 11]: 0 to 29%; pest or weed control at 140 g/ha [2, 11]: 0 to 29%; pest or weed control at 35 g/ha [2, 12]: 60 to 74%; pest or weed control at 70 g/ha [2, 12]: 75 to 84%; pest or weed control at 140 g/ha [2, 12]: 85 to 94%; pest or weed control at 35 g/ha [2, 13]: 75 to 84%; pest or weed control at 70 g/ha [2, 13]: 0 to 29%; pest or weed control at 140 g/ha [2, 13]: 30 to 44%; pest or weed control at 35 g/ha [2, 14]: 0 to 29%; pest or weed control at 70 g/ha [2, 14]: 0 to 29%; pest or weed control at 140 g/ha [2, 14]: 0 to 29%; melting point: 185 to 190 °C
COC(=O)c1nc(-c2ccc3cc[nH]c3c2)nc(N)c1Cl [Compound 1.30]	0 to 29%	0 to 29%	75 to 84%	0 to 29%	75 to 84%	60 to 74%	45 to 59%	45 to 59%	60 to 74%	30 to 44%	30 to 44%	45 to 59%	0 to 29%	45 to 59%	60 to 74%	0 to 29%	0 to 29%	0 to 29%	0 to 29%	0 to 29%	pest or weed control at 140 g/ha [2, 9]: 0 to 29%; pest or weed control at 35 g/ha [2, 10]: 0 to 29%; pest or weed control at 70 g/ha [2, 10]: 0 to 29%; pest or weed control at 140 g/ha [2, 10]: 0 to 29%; pest or weed control at 35 g/ha [2, 11]: 0 to 29%; pest or weed control at 70 g/ha [2, 11]: 0 to 29%; pest or weed control at 140 g/ha [2, 11]: 0 to 29%; pest or weed control at 35 g/ha [2, 12]: 0 to 29%; pest or weed control at 70 g/ha [2, 12]: 0 to 29%; pest or weed control at 140 g/ha [2, 12]: 0 to 29%; pest or weed control at 35 g/ha [2, 13]: 0 to 29%; pest or weed control at 70 g/ha [2, 13]: 0 to 29%; pest or weed control at 140 g/ha [2, 13]: 0 to 29%; pest or weed control at 35 g/ha [2, 14]: 0 to 29%; pest or weed control at 70 g/ha [2, 14]: 0 to 29%; pest or weed control at 140 g/ha [2, 14]: 0 to 29%; melting point: 240 to 242 °C
